The values below are quoted from earlier work in US11497761B2, “Compositions for the treatment of metastatic cancer” (priority 2019, dated 2022).

The subject of series [1] is Ehrlich ascites tumor cells. The note with it: in vitro, Kato et al. 1971; cited from earlier work.
The conditions of series [2]: Kato et al. 1971; cited from earlier work.
The subject of series [3] is PGC-1α. The note with it: cultured C2C12 myotubes; cited from earlier work.

Regarding octadecadienoic acid, the anticancer activity result in series [1] is “most active”.

On to `CCCCCCCCCCCCCCCC(=O)O` [Hexadecanoic, Hexadecanoic acid], for which the anticancer activity entry in series [1] is given as “most active”.

Regarding `CCCCCCCC/C=C\CCCCCCCC(=O)O` [octadecenoic, octadecenoic acid], in series [2], the solubility entry is given as “poorly soluble”.

As to lauric sucrose ester, the anticancer activity result in series [1] is “only weak activity”.

With `CCCCCCCCCCCC(=O)O` [lauric acid, dodecanoic acid], the “expression of PGC-1α” value in series [3] is reported as “did not alter expression”.

With `CCCCCCCCCCCCCCCCCC(=O)O` [octadeconoic, octadeconoic acid], in series [1], the anticancer activity entry is “most active”.
